In one assay the target is Rat liver α-2,3-ST (Rattus norvegicus (Rat), UniProt Q02734). In words: α-2,3-ST inhibition assay (IC50), RP-HPLC of sialylated disaccharide product. The assay is classed as biochemical. The settings on record: for fold potency increase over 19: vs compound 19. The protocol: Compound synthesis was carried out with the following materials according the following general procedures. All chemicals and buffers were purchased from Sigma, Aldrich, or Acros Organics; and all amino acids were purchased from Advanced Chemtech. CMP-Neu5Ac was synthesized starting with sialic acid (Traving & Schauer, Cell. Mol. Life Sci., 1998, 54:1330; Schwarzkopf et al., Proc. Natl. Acad. Sci. USA, 2002, 99:5267). Synthesis of lactose acceptor was achieved as described in Harduin-Lepers et al., Biochimie, 2001, 83:727. Rat liver α-2,3-ST was obtained from CalBiochem at a concentration of 3.7 mU/μL, stored at −80° C., and used within one week. Melting points (m.p.) were recorded with a capillary melting point apparatus (Electrothermal MEL-TEMP); FT-IR spectra were recorded with Perkin Elmer FT-IR Spectrometer (Paragon 1000) in KBr pellets; ^1H and ^13C NMR spectra were recorded with Bruker AMX400 or 500 MHz instruments. Proton chemical shifts (δ) are reported in parts per million (ppm) relative to the methine singlet at 7.24 ppm for the residual CHCl3 in the deuteriochloroform, or the methyl pentet at 3.30 ppm for the residual CHD2OD in the methanol-d4. Carbon chemical shifts are reported in ppm relative to the internal ^13C signals in CDCl3 (77.0 ppm) and CD3OD-d4 (49.0 ppm). Mass spectra were obtained with a FAB JMS-700 double focusing mass spectrometer (JEOL, Tokyo, Japan), MALDI Voyager DE-PRO (Applied Biosystem Houston, USA), and ESI Finnigan LCQ mass spectrometer (Thermo Finnigan, San Jose, Calif., United States) in negative mode. […] The separation procedure was performed using H2O/0.1% trifluoroacetic acid (TFA) (A) and CH3CN/0.05% TFA (B) as eluents.
Each compound was tested for α-2,3-ST inhibition using CMP-Neu5Ac as a substrate and a modified disaccharide with a 4,5-dimethoxy-2-nitrobenzyl group as a UV-labeled acceptor. Specifically, inhibition assays were performed in triplicate in reaction solution containing 200 mM MES buffer, 100 mM sodium chloride, 0.5 mM disodium-EDTA, 0.01% Triton X-100, 20 μM modified disaccharide, 1.4 mU α-2,3-ST and inhibitor (in dimethyl sulfoxide) in a total volume of 55. Reactions were incubated at 37° C. for 10 minutes at which point 1 mM CMP-Neu5Ac (to a final concentration 3 μM) was added. The solution was then incubated at 37° C. until a detectable amount of product was produced. The reaction was terminated by quenching the solution mixture with heat at 100° C. for 5 minutes. Enzyme activity was determined by monitoring the quantity of sialylated disaccharide product produced over time at 348 nm by RP-HPLC (Supelco Discovery® HS C18, 5 μm, 4.6 mm×25 cm).

In the next assay the test system is CL1-5 lung cancer cells. Nature of the assay: Cytotoxicity / cell growth, trypan blue exclusion. The assay is classed as cell-based. As to conditions: 5 μM or 10 μM, 48 hours, FBS-free media. The protocol: To determine the effect of the synthesized membrane-permeable α-2,3-ST inhibitors disclosed in Example 1 on cellular processes, in vitro cytotoxicity and adhesion assays were performed on the highly metastatic lung cancer cell line CL1-5. CL1-5 cells were plated at 1×10^6 cells per 60 mm culture dish in DMEM containing 10% fetal bovine serum (FBS) in 5% CO2. The following day the media was replaced with FBS-free media containing inhibitors at 5 μM or 10 μM concentration in DMSO. Controls cells were treated with 0.1% DMSO-containing medium without inhibitor. Cell number and viability were determined 48 hours later by trypan blue exclusion. Treatment with three α-2,3-ST inhibitors, N-Pentyonic (compound 21), Lith-Triethyl-de (compound 20), and Lith-o-Asp (compound 13), inhibited CL1-5 cell growth by between 10-20% compared to control (FIG. 2A).

Where [1] appears, read: α-2,3-ST, CMP-Neu5Ac substrate, triplicate, read-out: IC50.

Structures are written as SMILES. Where two headings read alike, the source gives them in different places.

Usually IC50 stands for the concentration that inhibits the measured activity by half.

Chain of Rat liver α-2,3-ST (Q02734 whole entry): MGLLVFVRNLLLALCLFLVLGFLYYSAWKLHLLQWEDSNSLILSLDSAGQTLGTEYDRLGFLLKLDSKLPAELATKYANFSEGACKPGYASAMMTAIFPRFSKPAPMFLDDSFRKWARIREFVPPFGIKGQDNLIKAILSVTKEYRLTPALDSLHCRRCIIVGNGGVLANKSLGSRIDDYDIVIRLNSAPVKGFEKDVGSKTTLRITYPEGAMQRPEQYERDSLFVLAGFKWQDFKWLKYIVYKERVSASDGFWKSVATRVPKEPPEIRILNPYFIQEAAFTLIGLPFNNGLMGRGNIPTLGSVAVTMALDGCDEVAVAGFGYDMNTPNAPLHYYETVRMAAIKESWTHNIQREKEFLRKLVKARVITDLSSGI

Regarding `C[C@H](CCCn1cc(CCO)nn1)C1CC[C@H]2C3CC[C@@H]4C[C@H](O)CC[C@]4(C)C3CC[C@]12C` (stereo partly drawn) [Compound 18, (3R,5R,10S,13R,14S)-17-((R)-5-(4-(2-hydroxyethyl)-1H-1,2,3-triazol-1-yl)pentan-2-yl)-10,13-dimethyl-hexadecahydro-1H-cyclopenta[a]phenanthren-3-ol], the “fold less potent than 21” value on Rat liver α-2,3-ST (vs compound 21) is listed as “at least 10 fold”. Also, the “fold less potent than 22” value on Rat liver α-2,3-ST (vs compound 22) is not below 20 fold. Also, the IC50 on Rat liver α-2,3-ST (setting [1]) was more than 0.1 mM.
Regarding `C[C@H](CCC(=O)O)C1CC[C@H]2C3CC[C@@H]4C[C@H](OC(=O)CCC(=O)O)CC[C@]4(C)C3CC[C@]12C` (stereo partly drawn) [Compound 12, (R)-4-((3R,5R,10S,13R,14S)-3-(3-carboxypropanoyloxy)-10,13-dimethyl-hexadecahydro-1H-cyclopenta[a]phenanthren-17-yl)pentanoic acid], at Rat liver α-2,3-ST (vs lithocholic acid), the “fold potency over lithocholic acid” value is recorded as 2 fold. For the same compound, the IC50 at Rat liver α-2,3-ST (setting [1]) came out at 0.012 mM.
For `C[C@H](CCC(=O)NCC(=O)O)C1CC[C@H]2C3CC[C@@H]4C[C@H](O)CC[C@]4(C)C3CC[C@]12C` (stereo partly drawn) [Compound 9, 2-((R)-4-((3R,5R,10S,13R,14S)-3-hydroxy-10,13-dimethyl-hexadecahydro-1H-cyclopenta[a]phenanthren-17-yl)pentanamido)acetic acid], the IC50 on Rat liver α-2,3-ST (setting [1]) was 0.025 mM.
`C[C@H](CCCn1cc(CCC(=O)O)nn1)C1CC[C@H]2C3CC[C@@H]4C[C@H](O)CC[C@]4(C)C3CC[C@]12C` (stereo partly drawn) [Compound 21, 3-(1-((R)-4-((3R,5R,10S,13R,14S)-3-hydroxy-10,13-dimethyl-hexadecahydro-1H-cyclopenta[a]phenanthren-17-yl)pentyl)-1H-1,2,3-triazol-4-yl)propanoic acid]: on Rat liver α-2,3-ST, the “fold potency increase over 19” value is listed as 8-12 fold. Further, on Rat liver α-2,3-ST (setting [1]), the IC50 amounted to 0.01 mM. Further, the “inhibition of CL1-5 cell growth compared to control” value in the assay on CL1-5 lung cancer cells is on record as 10-20%.
For `C[C@H](CCC(=O)OC(C)(C)C)C1CC[C@H]2C3CC[C@@H]4C[C@H](OC(=O)CCC(=O)O)CC[C@]4(C)C3CC[C@]12C` (stereo partly drawn) [Compound 14, 4-((3R,5R,10S,13R,14S)-17-((R)-5-tert-butoxy-5-oxopentan-2-yl)-10,13-dimethyl-hexadecahydro-1H-cyclopenta[a]phenanthren-3-yloxy)-4-oxobutanoic acid], the IC50 on Rat liver α-2,3-ST (setting [1]) worked out at 0.013 mM.
As to `C[C@H](CCC(=O)N[C@@H](CC(=O)O)C(=O)O)C1CC[C@H]2C3CC[C@@H]4C[C@H](OC(=O)CCC(=O)O)CC[C@]4(C)C3CC[C@]12C` (stereo partly drawn) [Compound 16, (S)-2-((R)-4-((3R,5R,10S,13R,14S)-3-(3-carboxypropanoyloxy)-10,13-dimethyl-hexadecahydro-1H-cyclopenta[a]phenanthren-17-yl)pentanamido)succinic acid], the IC50 at Rat liver α-2,3-ST (setting [1]) is 0.018 mM.
`C[C@H](CCC(=O)O)[C@H]1CC[C@H]2[C@@H]3CC[C@@H]4C[C@H](O)CC[C@]4(C)[C@H]3CC[C@]12C` [lithocholic acid]: the IC50 on Rat liver α-2,3-ST (steroid screen for α-2,3-ST inhibition, unit mM, read-out: IC50 value) worked out at 0.021 mM.
Take `C[C@H](CCC(=O)O)C1CC[C@H]2C3CC[C@@H]4C[C@H](OC(=O)[C@H](N)CC(=O)O)CC[C@]4(C)C3CC[C@]12C` (stereo partly drawn) [Compound 17, (R)-4-((3R,5R,10S,13R,14S)-3-((R)-2-amino-3-carboxypropanoyloxy)-10,13-dimethyl-hexadecahydro-1H-cyclopenta[a]phenanthren-17-yl)pentanoic acid]: on Rat liver α-2,3-ST (vs compound 13), the “fold improvement in potency over 13” value was determined as 2 fold. Besides, the IC50 at Rat liver α-2,3-ST (setting [1]) amounted to 0.006 mM.
As to `C[C@H](CCCO)C1CC[C@H]2C3CC[C@@H]4C[C@H](O)CC[C@]4(C)C3CC[C@]12C` (stereo partly drawn) [Compound 7, (3R,5R,10S,13R,14S)-17-((R)-5-hydroxypentan-2-yl)-10,13-dimethyl-hexadecahydro-1H-cyclopenta[a]phenanthren-3-ol], at Rat liver α-2,3-ST (vs lithocholic acid), the “fold decrease in potency relative to lithocholic acid” value is 5 to 17 fold. In addition, the IC50 on Rat liver α-2,3-ST (setting [1]) is 0.351 mM.
For `CCOP(=O)(OCC)C(Cc1cn(CCC[C@@H](C)C2CC[C@H]3C4CC[C@@H]5C[C@H](O)CC[C@]5(C)C4CC[C@]23C)nn1)C(=O)O` (stereo partly drawn) [Compound 20, 2-(diethoxyphosphoryl)-3-(1-((R)-4-((3R,5R,10S,13R,14S)-3-hydroxy-10,13-dimethyl-hexadecahydro-1H-cyclopenta[a]phenanthren-17-yl)pentyl)-1H-1,2,3-triazol-4-yl)propanoic acid], the “fold potency increase over 19” value at Rat liver α-2,3-ST was 8-12 fold. Besides, the IC50 on Rat liver α-2,3-ST (setting [1]) worked out at 0.007 mM. In the assay with CL1-5 lung cancer cells, the “inhibition of CL1-5 cell growth compared to control” value is listed as 10-20%.
`C[C@H](CCC(=O)N[C@@H](CC(=O)O)C(=O)O)C1CC[C@H]2C3CC[C@@H]4C[C@H](O)CC[C@]4(C)C3CC[C@]12C` (stereo partly drawn) [Compound 10, (S)-2-((R)-4-((3R,5R,10S,13R,14S)-3-hydroxy-10,13-dimethyl-hexadecahydro-1H-cyclopenta[a]phenanthren-17-yl)pentanamido)succinic acid]: the IC50 on Rat liver α-2,3-ST (setting [1]) was determined as 0.016 mM.
Consider `C[C@H](CCCn1cc(CC(N)C(=O)O)nn1)C1CC[C@H]2C3CC[C@@H]4C[C@H](O)CC[C@]4(C)C3CC[C@]12C` (stereo partly drawn) [Compound 19, 2-amino-3-(1-((R)-4-((3R,5R,10S,13R,14S)-3-hydroxy-10,13-dimethyl-hexadecahydro-1H-cyclopenta[a]phenanthren-17-yl)pentyl)-1H-1,2,3-triazol-4-yl)propanoic acid], for which the IC50 at Rat liver α-2,3-ST (setting [1]) is 0.083 mM.
For `C[C@H](CCC(=O)O)C1CC[C@H]2C3CC[C@@H]4CC(=O)CC[C@]4(C)C3CC[C@]12C` (stereo partly drawn) [Compound 11, (R)-4-((5R,10S,13R,14S)-10,13-dimethyl-3-oxo-hexadecahydro-1H-cyclopenta[a]phenanthren-17-yl)pentanoic acid], the “fold decrease in potency relative to lithocholic acid” value at Rat liver α-2,3-ST (vs lithocholic acid) was found to be 7 fold. In addition, on Rat liver α-2,3-ST (setting [1]), the IC50 stood at 0.139 mM.
On to `C[C@H](CCC(=O)NCC(=O)O)C1CC[C@H]2C3CC[C@@H]4C[C@H](OC(=O)CCC(=O)O)CC[C@]4(C)C3CC[C@]12C` (stereo partly drawn) [Compound 15, 4-((3R,5R,10S,13R,14S)-17-((R)-5-(carboxymethylamino)-5-oxopentan-2-yl)-10,13-dimethyl-hexadecahydro-1H-cyclopenta[a]phenanthren-3-yloxy)-4-oxobutanoic acid], for which the half-inhibitory concentration (IC50) on Rat liver α-2,3-ST (setting [1]) came to 0.022 mM.
`C[C@H](CCCOP(=O)(Oc1ccccc1)Oc1ccccc1)C1CC[C@H]2C3CC[C@@H]4C[C@H](O)CC[C@]4(C)C3CC[C@]12C` (stereo partly drawn) [Compound 8, (R)-4-((3R,5R,10S,13R,14S)-3-hydroxy-10,13-dimethyl-hexadecahydro-1H-cyclopenta[a]phenanthren-17-yl)pentyl diphenyl phosphonate]: the “fold decrease in potency relative to lithocholic acid” value on Rat liver α-2,3-ST (vs lithocholic acid) lay within 5 to 17 fold. For the same compound, the IC50 at Rat liver α-2,3-ST (setting [1]) was more than 0.1 mM.

Source of the values: patent US8940719B2, “Lithocholic acid analogues that inhibit sialyltransferase” (Academia Sinica, priority 2006, dated 2015).
